From patent US8343458B2, “Probes for in vivo targeting of active cysteine proteases” (The Board of Trustees of the Leland Stanford Junior …, priority 2008, dated 2013)
Entries after “also recorded” stand apart in the source; their conditions may differ. Each block holds one compound with its values, some of them ahead of it.

What was measured:
C2/C12 Ras tumors = assay: Tumor uptake of 64Cu-labeled cathepsin probes in tumor-bearing mice (FIG. 7); format: in vivo, mouse; settings: 64Cu-labeled probe; for tumor uptake after 2 hrs / tumor uptake after 24 hours: IV
Method: Mice bearing tumors derived from […] C2/C12 Ras transformed cells were IV injected with ^64Cu-labeled probes. Images and total probe accumulation in tumors (arrows) is shown. For purposes of reproduction, the image is converted to black and white and reversed.
Essentially, two to four weeks prior to imaging MDA-MB 231 or C2C12/ras cells (a myoblast cell line wherein ras blocks differentiation) at 2×10^6 cell per spot were injected subcutaneous to the back of Balb-c nude mice.
Mice bearing tumors of similar size were injected intravenous via the tail vein with a DMSO/PBS solution of the compound to be tested. DMSO/PBS was locally injected directly into tumors in indicated mice, 15 minutes prior to probe injection. Fluorescent intensity as photons per second per centimeter square per steradian (p/s/cm2/sr) was recorded from living mice. Images were taken at various time points after probe injection using an IVIS 200 imaging system equipped with a Cy5.5 filter. Other protocols are known and may be adapted for administration and imaging in vivo using the present compounds. Another protocol for mouse studies is given in Joyce et al. “Cathepsin cysteine proteases are effectors of invasive growth and angiogenesis during multistage tumorigenesis,” Cancer Cell 5:443-452 (May 2004), at page 452.
In an initial attempt to make PET compatible cathepsin probes, a Cy5 tag was replaced with a group that could be used to bind ^64Cu. This was compound ^64Cu-DOTA-FFK-AOMK (GB172). […] Without wishing to be bound by any theory, it was reasoned that this poor accumulation in tumors was likely due to changes in the pharmacokinetic (PK) and cell permeability properties as the result of removal of the large, hydrophobic fluorophore molecule. While the improved uptake of the probe having both the macrocyclic chelator and the polyaromatic functionality (Cy5), it is thought that the combination of a bulky chelator and a substituted polyaromatic provided the probe molecule with provided a balance of mass, charge and hydrophobicity that gave the probe increased permeability through the outer lipid membranes of the cells. Following this logic, a version of GB-123 that retains the Cy5 fluorophore and also contains a site for attachment of the PET imaging tag was prepared. This was 64 Cu (GB170).

cathepsins B and L = assay: Labeling of intact tumor cells (SDS-PAGE, gel scan); format: cell-based, mouse (C2C12/Ras), human (MDA-MB-435)
Source text: FIG. 2 is a series of figures which, taken together, show the structure and function of representative in vivo probes. FIG. 2A is a schematic drawing of a chelator—conjugated probe, illustrating several component moieties. FIGS. 2B and 2C are gels showing expression and activity of enzyme targets of such probe, with a radionuclide label attached to the illustrated structure, showing the expression and activity of CB in a mouse myoblast cell line C2C12Ras and human breast cancer cell line MDA-MB-435. […] Cells were pretreated with JPM-OEt (50 μM) (+) or with control DMSO (0.1%) (−) for 2 h and labeled by addition of ^64Cu-Z-FK(DOTA)-AOMK (555 KBq, 15 μCi) to culture medium for 2 h. Cells were collected, lysed and analyzed after SDS-PAGE. The labeled proteases were visualized by scanning of the gel with a Typhoon 9410 imager.
Before applying the radiolabel probe in vivo we first tested the ability of the probe to label multiple tumor cell lines grown in vitro. We initially examined the labeling of the human breast cancer cell line MBA-MB-435 and a mouse myoblastoma cell line that had been transformed by overexpression of the ras oncogene (C2C12/Ras). Both of these cell lines were used for in vivo imaging studies with the NIRF-labeled cysteine cathepsin probes. To confirm earlier studies of these cells using the NIRF probes we labeled them with general Cy5-labeled probe GB123 (FIG. 1C). […] Labeling of the same cells with ^64Cu-Z-FK(DOTA)-AOMK confirmed that the DOTA produced a similar labeling pattern to that observed for the NIRF probe GB123.
C2C12/Ras and MDA-MB-435 cells (0.25 M each well) were seeded in a six-well plate one day before the study. Cells were pretreated with the general papain family protease inhibitor JPM-OEt (50 μM^28) or with control DMSO (0.1%) for 1 h and labeled by addition of ^64Cu-Z-FK(DOTA)-AOMK (555 KBq, 15 μCi) to culture medium for 2 h. Cells was then washed with PBS and lysed. Equal amounts of protein per lane were separated by 12% SDS-PAGE. […] The labeled bands were quantified with ImageJ 1.36b (public domain software from National Institute of Health).

Cathepsin Z, H, J, C = settings: Kato et al. Nat Chem Biol 2005; cited from earlier work
cathepsin B [1] = settings: Kato et al. Nat Chem Biol 2005; cited from earlier work
human cathepsin L = human cathepsin L (Homo sapiens, UniProt P07711); assay: Kinetic inhibition study, cathepsin L; format: biochemical; settings: kinetic inhibition studies
human cathepsin L, sequence (P07711 114-333): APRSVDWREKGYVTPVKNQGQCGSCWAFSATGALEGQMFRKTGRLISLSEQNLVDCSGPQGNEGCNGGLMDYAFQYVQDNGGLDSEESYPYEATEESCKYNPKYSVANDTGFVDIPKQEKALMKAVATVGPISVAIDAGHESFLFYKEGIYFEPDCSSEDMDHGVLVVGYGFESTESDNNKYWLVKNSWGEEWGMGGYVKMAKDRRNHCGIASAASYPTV
Source text: (§1) We attached the chelator and radionuclide to the probe at the P1 lysine side-chain. By attaching the radiolabel to a side chain, it is less likely to interfere with the binding of the AOMK warhead to the active protease. Previous work has shown that the majority of critical substrate interactions take place in the P2 position of the papain family proteases.
(§2) The kinetics of inhibition may be determined by progress curve method under pseudo-first order conditions with at least 10-fold molar excess of inhibitor. Recorded progress curves are analysed by non-linear regression according to the following equation (Bieth, J. G. Theoretical and practical aspects of proteinase inhibition kinetics. Methods Enzymol, 248, 59-84 (1995).) [P]=vz(1−e^−k·t)/k • where [P] is the product, vz is the velocity at time zero and k is the pseudo first order rate constant. Apparent rate constant (kapp) was determined from the slope of plot k versus [I]. […]
(§3) Activity of human cathepsin L is measured using the fluorogenic substrate Z-FRAMC37 (Bachem, USA) (Km=7.1 μM) and cathepsin B is assayed against the fluorogenic substrate Z-RR-AMC38 (Bachem, USA) (Km=114 μM). […] Increase of fluorescence (370 nm excitation, 460 nm emission) is continuously monitored for 30 minutes by Spectramax M5 spectrofluorimeter. (Molecular Devices, USA) and inhibition curves were recorded. […]

cathepsin B [2] = target: cathepsin B (Homo sapiens, UniProt P07858); assay: Kinetic inhibition study, cathepsin B; format: biochemical; settings: kinetic inhibition studies
Source text: as §1, §2, §3

C2C12/Ras tumors = assay: Biodistribution in nude mice bearing subcutaneous C2C12/Ras tumors; format: in vivo, mouse; settings: C2C12/Ras tumor mice, i.v. 740 kBq
Method: All animal studies were carried out in compliance with Federal and local institutional rules for the conduct of animal experimentation. Female athymic nude mice (nu/nu) were obtained from Charles River Laboratories (Boston, Mass.) at 7-8 weeks old and kept under sterile conditions. The nude mice were inoculated subcutaneously in the right shoulder with 2×10^6 cultured C2C12/Ras cells or 5×10^6 MDA-MB-435 cells. When the tumors reach 0.5-0.8 cm in diameter, the tumor bearing mice were subjected to in vivo biodistribution studies. For biodistribution studies, the mice bearing C2C12/Ras or MDA-MB-435 tumor xenografts (n=3 for each group) were injected with 740 KBq (20 μCi) of ^64Cu labeled tracer through the tail vein and sacrificed at different time points post injection (p.i.). Tumor and normal tissues of interest were removed and weighed, and their radioactivity was measured in a gamma-counter. The radioactivity uptake in the tumor and normal tissues was expressed as a percentage of the injected radioactive dose per gram of tissue (% ID/g).
We next examined the overall biodistribution of ^64Cu-Z-FK(DOTA)-AOMK using athymic nude mice carrying subcutaneously grafted C2C12/Ras and MDA-MB-435 tumors. […] Importantly, we observed rapid accumulation of radioactivity in the C2C12/Ras tumors expressing high levels of cysteine cathepsins (0.35±0.13% ID/g at 0.5 h p.i.). This activity remained in the tumors resulting in an uptake of 0.27±0.05% ID/g at 24 h p.i. For the MDA-MB-435 tumors with lower cysteine cathepsin expression, tumor uptake was approximately 2 fold lower at each time point relative to the C2C12/Ras tumors (P<0.05). […] The highest radioactivity was found in the liver due to high endogenous expression of various cysteine cathepsins. Moderate renal accumulation was also observed at all times in both tumor models.
Data are expressed as the percentage administered activity (injected dose) per gram of tissue (% ID/g) after intravenous injection of 740 kBq (20 μCi) of ^64Cu-Z-FK(DOTA)-AOMK at 0.5, 2, and 24 h pi (n=3). Significant lower tumor uptake and tumor/blood, tumor/muscle ratio in MDA-MB-435 breast cancer (P<0.05) were observed.

[3] = Octanol/water partition coefficient; format: physicochemical; settings: octanol / PBS pH 7.4, repeated 3 times
Method: Octanol/water partition coefficient. To determine the lipophilicity of ^64Cu-Z-FK(DOTA)-AOMK, approximately 370 kBq of ^64Cu-labeled complex in 500 μl of PBS (pH 7.4) was added to 500 μl of octanol in an eppendorf microcentrifuge tube. The resulting biphasic system was mixed vigorously for 10 min and left at room temperature for another 60 min. The two phases were then separated by centrifugation at 2000 g for 5 min (model 5415R Eppendorf microcentrifuge; Brinkman, Westbury, N.Y.). From each layer, an aliquot of 100 μl was removed and counted in a γ-counter (Packard Instruments). The partition coefficient (log P) was then calculated as a ratio of counts in the octanol fraction to the counts in the water fraction. The experiment was repeated 3 times. The lipophilicity of the probe affects its in vivo pharmacokinetics, and should be modest (˜0), with hydrophobic and hydrophilic groups present. For further details, see Lin et al., “Role of Pharmacokinetics and Metabolism in Drug Discovery and Development,” Pharmacological Reviews, Vol. 49, Issue 4, 403-449, December 1997.

Compound: CC[N+]1=C(/C=C/C=C/C=C2\N(CCCCCC(=O)NCCCC[C@H](NC(=O)[C@H](Cc3ccccc3)NC(=O)[C@H](Cc3ccccc3)NC(=O)CN3CCN(CC(=O)O)CCN(CC(=O)O)CCN(CC(=O)O)CC3)C(N)=O)c3ccc(S(=O)(=O)O)cc3C2(C)C)C(C)(C)c2cc(S(=O)(=O)O)ccc21 [GB 173, DOTA-FFK(Cy5)-AOMK-Amide]
tumor uptake after 2 hrs (C2/C12 Ras tumors): 1.71 ± 0.08 | tumor uptake after 24 hours (C2/C12 Ras tumors): 0.37 ± 0.13

Compound: JPM-OEt
Effect of inhibitor pretreatment on probe labeling of protease targets (cathepsins B and L; cells pretreated with 50 μM inhibitor, then labeled with 64Cu-Z-FK(DOTA)-AOMK): complete loss of labeling

Compound: CC[N+]1=C(/C=C/C=C/C=C2\N(CCCCCC(=O)NCCCC[C@H](NC(=O)[C@H](Cc3ccccc3)NC(=O)[C@H](Cc3ccccc3)NC(=O)CN3CCN(CC(=O)O)CCN(CC(=O)O)CCN(CC(=O)O)CC3)C(=O)COC(=O)c3c(C)cccc3C)c3ccc(S(=O)(=O)O)cc3C2(C)C)C(C)(C)c2cc(S(=O)(=O)O)ccc21 [GB 170, DOTA-FFK(Cy5)-AOMK]
Tumor uptake in PET studies (in words) (C2/C12 Ras tumors): dramatically increased uptake in tumor tissues | tumor uptake after 2 hrs (C2/C12 Ras tumors): 3.17 ± 0.05 | tumor uptake after 24 hours (C2/C12 Ras tumors): 1.56 ± 0.23

Tumor uptake in PET studies (in words) (C2/C12 Ras tumors): overall probe uptake was very low | tumor uptake after 2 hrs (C2/C12 Ras tumors): 0.41 ± 0.07 | tumor uptake after 24 hours (C2/C12 Ras tumors): 0.32 ± 0.04
Compound: Cc1cccc(C)c1C(=O)OCC(=O)[C@H](CCCCN)NC(=O)[C@H](Cc1ccccc1)NC(=O)[C@H](Cc1ccccc1)NC(=O)CN1CCN(CC(=O)O)CCN(CC(=O)O)CCN(CC(=O)O)CC1 [GB 172, DOTA-FFK-AOMK]

Compound: CCN1C(=CC=CC=CC2=[N+](CCCCCC(=O)NCCCC[C@H](NC(=O)[C@H](Cc3ccccc3)NC(=O)OCc3ccccc3)C(=O)COC(=O)c3c(C)cccc3C)c3ccc(S(=O)(=O)O)cc3C2(C)C)C(C)(C)c2cc(S(=O)(=O)O)ccc21 [GB123]
Cathepsin B and L activity of C2C12/Ras relative to MDA-MB-435 cells by probe labeling (cathepsins B and L; cells labeled with Cy5-labeled probe): 7.4 fold

Compound: Cc1cccc(C)c1C(=O)OCC(=O)[C@H](CCCNC(=N)N)NC(=O)[C@H](Cc1ccccc1)NC(=O)OCc1ccccc1 [Z-FR-AOMK]
Activity against cathepsins Z, H, J, C (Cathepsin Z, H, J, C): not cathepsins Z, H, J, H or C; also recorded: not Cathepsin Z, H, J, C or H | Activity against cathepsin B (cathepsin B [1]): active only against cathepsin B; also recorded: inhibits cathepsin B

Loss of potency towards cathepsin L on modification of the P1 lysine (human cathepsin L): 100 fold | Loss of potency for cathepsin B on modification of the P1 lysine (cathepsin B [2]): 30 fold
Compound: Cc1cccc(C)c1C(=O)OCC(=O)[C@H](CCCCN)NC(=O)[C@H](Cc1ccccc1)NC(=O)OCc1ccccc1 [NH2-GB11]

Biodistribution: Tumor (C2C12/Ras tumors; 2 h p.i.): 0.30±0.03 % ID/g | Biodistribution: Tumor (C2C12/Ras tumors; 24 h p.i.): 0.27±0.05 % ID/g | log P (octanol-water partition coefficient) [3]: −0.10±0.04
Compound: Cc1cccc(C)c1C(=O)OCC(=O)[C@H](CCCCNC(=O)CN1CCN(CC(=O)O)CCN(CC(=O)O)CCN(CC(=O)O)CC1)NC(=O)[C@H](Cc1ccccc1)NC(=O)OCc1ccccc1 [Z-FK(DOTA)-AOMK]
